{
  "source": "patent US12186337B2",
  "about": "(priority 2009, dated 2025)",
  "conditions": "pH 10",
  "data": [
    {"smiles": "O=NO", "note": "[sodium nitrite]", "values": [
      {"measurement": "pH of 10% solution at 25° C.", "value": 7.9}
    ]}
  ]
}
